One data set concerns human CD19^+ CAR T cells. Kind of data set: Growth of human CD19 CAR T cells. The settings on record: 500 µM, 7 days. The data set is classed as cell-based.
Data set [1] deals with CD8^+ T cells. Kind of data set: Seahorse analysis of ECAR and OCR (GST, MST, fuel flex test). In kind it is cell-based, human. On the procedure:
To explore further the metabolic consequences of this observed glutarate-induced reduction in PDHc activity, we performed a glycolysis stress test (GST). Acute effects were determined by treating CD8^+ T cells with DEG for 30 min while plated in the Seahorse XF Analyzer. Chronic effects were determined by performing a standard GST in CD8^+ T cells that had been cultured with DEG for 7 days before assay.
To better understand the consequences of providing glutarate as a fuel for mitochondrial oxidation, we measured cellular oxygen consumption while inhibiting, in different combinations, fatty acid, glucose and glutamine oxidation, the three main fuel sources for mitochondrial oxidation (Extended Data Fig. 4i). This was achieved via injection of etomoxir, UK5099 and Bis-2-(5-phenylacetamido-1,3,4-thiadiazol-2-yl)ethyl sulphide (BPTES), respectively, in cells plated in a Seahorse XF Analyzer.
A Seahorse XFe bioanalyzer was used to measure the OCR and ECAR. A total of 1.5 × 10^5 CD8^+ T cells per well were spun onto poly-D-lysine-coated (catalogue no. P7280, Sigma-Aldrich) Seahorse plates and preincubated at 37 °C for a minimum of 30 min in the absence of CO2 in Seahorse XF RPMI medium, pH 7.4 (10376-100, Agilent), supplemented with 10 mM glucose (catalogue no. A2494001, Thermo Fisher Scientific) and 2 mM glutamine (catalogue no. 25030081, Thermo Fisher Scientific). A minimum of five technical replicates per biological replicate were used. For the MST and GST, OCR and ECAR were measured under basal conditions and after the addition of the following: 750 µM DEG (catalogue no. QB-1473, Combi-block), 0.05% DMSO, 1 μM oligomycin (catalogue no. 75351, Sigma-Aldrich), 1.5 μM FCCP (catalogue no. C2920, Sigma-Aldrich), 100 nM rotenone + 1 μM antimycin A (catalogue nos. R8875 and A8674, Sigma-Aldrich), 10 mM glucose and 50 mM 2-DG (catalogue no. B1048-100, BioVision) as indicated. To assess mitochondrial fuel use, OCR was measured subsequent to the addition of the following drugs in different combinations as indicated: 3 µM BPTES (catalogue no. SML0601, Sigma-Aldrich), 2 µM UK-5099 (catalogue no. PZ0160, Sigma-Aldrich) and 4 µM etomoxir (catalogue no. E1905, Sigma-Aldrich). Assay parameters were as follows: 3 min mix, no wait, 3 min measurement, repeated 3–5 times at basal and after each addition. Measurements were taken using a 96-well Extracellular Flux Analyzer (Seahorse Bioscience).

For data set [2], the system named is H3 lysine methylation in human CD8^+ T cells. Kind of data set: Histone 3 methylation western blot. In kind it is cell-based. The settings on record: DEG 500 µM, 7 days. The method, then:
Histones were extracted with the Histone Extraction Kit (catalogue no. ab113476, Abcam). Proteins were separated by SDS–PAGE and transferred to polyvinylidene fluoride (PVDF) membranes. Total protein stain was obtained using non-stain protein labelling reagent (catalogue no. A44448, Thermo Fisher Scientific). Membranes were then blocked in 5% milk prepared in PBS plus 0.05% Tween-20, incubated with primary antibodies overnight at 4 °C and horseradish peroxidase (HRP)-conjugated secondary antibodies (catalogue nos. HAF008 and HAF007, R&D Systems) for 1 h the next day. After enhanced chemiluminescence (ECL) exposure (catalogue no. GERPN2106, Sigma-Aldrich), membranes were imaged using an iBrightCL1000 (Thermo Fisher Scientific). […] 13998); and anti-H3k27ac (catalogue no.

Data set [3] relates to CD8^+ T cells. Kind of data set: Western blot of PDHK1, phosphorylated PDHc and PDHc. In kind it is cell-based, human. The settings on record: 500 µM DEG. The method, then: Cell pellets were lysed by either urea-Tris buffer (8 M urea, 50 mM Tris-HCl (pH 7.5), 150 mM β-mercaptoethanol), sonicated twice for 45 s intercalated with 1 min incubation on ice and centrifuged at 14,000g, 4 °C for 15 min or by RIPA Lysis and Extraction Buffer (catalogue no. 89900, Thermo Fisher Scientific), according to the manufacturer’s instructions. Nuclear and cytosolic fractions were prepared from cells using the NE-PER kit (catalogue no. 78833, Thermo Fisher Scientific). Histones were extracted with the Histone Extraction Kit (catalogue no. ab113476, Abcam). Proteins were separated by SDS–PAGE and transferred to polyvinylidene fluoride (PVDF) membranes. Total protein stain was obtained using non-stain protein labelling reagent (catalogue no. A44448, Thermo Fisher Scientific). Membranes were then blocked in 5% milk prepared in PBS plus 0.05% Tween-20, incubated with primary antibodies overnight at 4 °C and horseradish peroxidase (HRP)-conjugated secondary antibodies (catalogue nos. HAF008 and HAF007, R&D Systems) for 1 h the next day. After enhanced chemiluminescence (ECL) exposure (catalogue no. GERPN2106, Sigma-Aldrich), membranes were imaged using an iBrightCL1000 (Thermo Fisher Scientific). The following primary antibodies from Cell Signaling Technology were used at a concentration of 1:1,000: anti-PDHK1 (catalogue no. 3820); anti-β-actin (catalogue no. 12262S); anti-PPIB (catalogue no. 43603); anti-OGDH (catalogue no. 26865S); anti-phospho-PDH α1 (catalogue no. 37115); anti-SIRT5 (catalogue no. 8779S); anti-H3 (catalogue no. 4499); anti-H3K4me2 (catalogue no. 9725); anti-H3K4me3 (catalogue no. 9751); anti-H3K9me2 (catalogue no. 4658); anti-H3K9me3 (catalogue no. 13969); anti-H3K27me2 (catalogue no. 9728); anti-H3K27me3 (catalogue no. 9733); anti-H3K36me2 (catalogue no. 2901); anti-H3K36me3 (catalogue no. 4909); anti-H3K79me2 (catalogue no. 5427); anti-H3K79me3 (catalogue no. 4360); anti-H3k9ac (catalogue no. 9649); anti-H3K18ac (catalogue no. 13998); and anti-H3k27ac (catalogue no. 8173). […]
On the technique in general: A western blot detects proteins with antibodies after separation by electrophoresis.

Setting [4] is: fuel flex test, 500 µM DEG, 7 days, other fuel sources limited.

The source of these data is PMC10590756, “Glutarate regulates T cell metabolism and anti-tumour immunity” (Nature Metabolism, 2023).

Consider `CCOC(=O)CCCC(=O)OCC` [DEG, Diethyl glutarate], for which the “growth of human CD19^+ CAR T cells” value in the data set with human CD19^+ CAR T cells is “did not affect the growth”. In addition, the “maximal OCR, cells treated 7 days with DEG” value with CD8^+ T cells [1] (500 µM DEG, 7 days) is recorded as “reduced maximal OCR”. Further, the “basal oxygen consumption rates (OCRs)” value in the data set on CD8^+ T cells [1] (500 µM DEG, acute and chronic, with or without glucose and glutamine) is “either maintained or increased”. The “basal extracellular acidification rate (ECAR)” value in the data set with CD8^+ T cells [1] (DEG 30 min (acute) or 7 days (chronic)) is “increases”. The “glycolytic rate (GST), acute exposure” value in the data set with CD8^+ T cells [1] (DEG 30 min in the Seahorse XF Analyzer) is “increased glycolytic rate”. Moreover, in the data set on CD8^+ T cells [1] (acute DEG), the “effect of FCCP on OCR (MST), cells treated acutely with DEG” value is “did not have an effect”. In addition, the “glycolytic rate (GST), chronic exposure” value with CD8^+ T cells [1] (cultured with DEG for 7 days) is on record as “increased glycolytic rate”. Also, the “dependence on fatty acid, glucose and glutamine oxidation” value in the data set with CD8^+ T cells [1] (fuel flex test, 500 µM DEG, 7 days) is recorded as “not more dependent”. For the same molecule, in the data set on CD8^+ T cells [1] (setting [4]), the “capacity to oxidize fatty acids” value was “increased capacity” and the “capacity to oxidize glucose” value was “increased capacity”. Besides, in data set [2], the “dimethylation of H3K9” value is “increased”, the “trimethylation of H3K9” value is reported as “increased” and the “trimethylation of H3K27” value was “increased”. In the data set on CD8^+ T cells [3], the PDHK1 protein levels result is reported as “not significantly altered”, the PDHc phosphorylation levels result is on record as “did not observe any changes” and the “protein expression of the PDHc” value is listed as “did not alter”.
